Patent publication US20100152302A1, “NOVEL CRYSTALLINE FORMS OF ATOVAQUONE” (HETERO DRUGS LIMITED, priority 2007, published 2010)
Several values for one entry are separate records, joined by “and”; a condition that tells them apart may be missing. Equal entries are not always repeated.

How the values were obtained:
[1] = cited from earlier work
[2] = Specific surface area by B.E.T. nitrogen absorption analysis; format: physicochemical; conditions: isolated crystalline solid of the example, after drying or spray drying
Excerpt: Specific surface area is defined in units of square meters per gram (m^2/g). It is usually measured by nitrogen absorption analysis. In this analysis, nitrogen is absorbed on the surface of the substance. The amount of the absorbed nitrogen (as measured during the absorption or the subsequent desorption process) is related to the surface area via a formula known as the B.E.T. formula.

Specific Surface Area [2] | SMILES | solubility in chloroform ([1]; chloroform) | solubility in water ([1]; water)
– | O=C1C(O)=C([C@H]2CC[C@H](c3ccc(Cl)cc3)CC2)C(=O)c2ccccc21 [Atovaquone, trans-2-[4-(4-chlorophenyl)cyclohexyl]-3-hydroxy-1,4-naphthoquinone] | soluble | practically insoluble
0.54 m^2/g | O=C1C(O)=C([C@H]2CC[C@H](c3ccc(Cl)cc3)CC2)C(=O)c2ccccc21 [atovaquone Form I, trans-2-[4-(4-chlorophenyl)cyclohexyl]-3-hydroxy-1,4-naphthoquinone] | – | –
0.76 m^2/g | O=C1C(O)=C([C@H]2CC[C@H](c3ccc(Cl)cc3)CC2)C(=O)c2ccccc21 [atovaquone crystalline form A, trans-2-[4-(4-chlorophenyl)cyclohexyl]-3-hydroxy-1,4-naphthoquinone] | – | –
2.84 m^2/g and 3.12 m^2/g | O=C1C(O)=C([C@H]2CC[C@H](c3ccc(Cl)cc3)CC2)C(=O)c2ccccc21 [atovaquone crystalline form B, trans-2-[4-(4-chlorophenyl)cyclohexyl]-3-hydroxy-1,4-naphthoquinone] | – | –
